# Measurements published in ChEMBL document CHEMBL6182873, “Fungal dimeric xanthones as anticancer agents by novelly stimulating sodium-calcium exchanger 1” (Eur J Med Chem, 2025).
# The source made the active and inactive calls. No cut-off for these calls is given here.
# How the values were obtained:
# AGS [1] = experiment: Anti-proliferative activity against human AGS cells assessed as inhibition of cell viability incubated for 48 hrs by CCK8 assay; assay type: functional, cell-based
# Gastric cancer cell = experiment: Anti-proliferative activity against human gastric cancer cells assessed as reduction in cell proliferation at 10 to 40 uM; assay type: functional, cell-based; conditions: dose 10-40 µM
# GES1 = experiment: Anti-proliferative activity against human GES1 cells; assay type: toxicity, cell-based
# AGS [2] = experiment: Potency index, ratio of cisplatin IC50 to test compound IC50 for anti-proliferative activity against human AGS cells assessed as inhibition of cell viability incubated for 48 hrs by CCK8 assay; assay type: functional
# [3] = molecular target: Sodium/calcium exchanger 1 (Homo sapiens) (UniProt P32418); experiment: Activation of NCX1 in human AGS cells harboring shNCX1 assessed as increase in intracellular Fluo4-Ca2+ level at 5 uM in presence of extracellular Fluo4-Ca2+ by cell imaging analysis; assay type: cell-based
# [4] = molecular target: Sodium/calcium exchanger 1 (Homo sapiens) (UniProt P32418); experiment: Activation of NCX1 in human DLD-1 cells assessed as increase in intracellular Fluo4-Ca2+ level at 5 uM in presence of extracellular Fluo4-Ca2+ by cell imaging analysis; assay type: cell-based
# [5] = molecular target: Sodium/calcium exchanger 1 (Homo sapiens) (UniProt P32418); experiment: Activation of NCX1 in human AGS cells assessed as induction of membrane currents at 5 uM in presence of extracellular Fluo4-Ca2+ by cell imaging analysis; assay type: cell-based; conditions: filed as activator
# [6] = molecular target: Sodium/calcium exchanger 1 (Homo sapiens) (UniProt P32418); experiment: Activation of NCX1 in human AGS cells assessed as induction of membrane currents at 5 uM in presence of extracellular Fluo4-Ca2+/SN6 by cell imaging analysis; assay type: cell-based
# [7] = molecular target: Sodium/calcium exchanger 1 (Homo sapiens) (UniProt P32418); experiment: Activation of NCX1 in human AGS cells assessed as increase in intracellular Fluo4-Ca2+ level at 5 uM in presence of extracellular Fluo4-Ca2+/SN6 by cell imaging analysis; assay type: cell-based
# AGS [8] = experiment: Induction of cell cycle arrest in human AGS cells assessed as cell accumulation at G2 phase at 5 uM by PI staining based flow cytometry (reference value: 25.7 %); assay type: functional
# AGS [9] = experiment: Effect on ERK1/2 level in human AGS cells up to 10 uM by Western blot analysis; assay type: functional, cell-based
# [10] = molecular target: Sodium/calcium exchanger 1 (Homo sapiens) (UniProt P32418); experiment: Activation of NCX1 in human AGS cells assessed as increase in intracellular Fluo4-Ca2+ level at 5 uM in presence of extracellular Fluo4-Ca2+ by cell imaging analysis; assay type: cell-based; conditions: filed as activator
# AGS [11] = experiment: Induction of cell cycle arrest in human AGS cells assessed as cell accumulation at G1 phase at 5 uM by PI staining based flow cytometry (reference value: 41.9 %); assay type: functional
# AGS [12] = experiment: Induction of apoptosis in human AGS cells assessed as viable cells at 20 uM by Annexin V-FITC/PI staining based flow cytometry (reference value: 94.1 %); assay type: functional; conditions: read-out: Activity
# AGS [13] = experiment: Induction of apoptosis in human AGS cells assessed as early apoptotic cells at 5 uM by Annexin V-FITC/PI staining based flow cytometry (reference value: 4.25 %); assay type: functional
# AGS [14] = experiment: Downregulation of beta-catenin level in human AGS cells at 5 uM in presence of SN 6 by Western blot analysis; assay type: functional, cell-based
# AGS [15] = experiment: Downregulation of PI3K level in human AGS cells at 5 uM in presence of SN 6 by Western blot analysis; assay type: functional, cell-based
# AGS [16] = experiment: Downregulation of PI3K level in human AGS cells by Western blot analysis; assay type: functional, cell-based; conditions: dose <= 10.0 µM
# AGS [17] = experiment: Induction of cell cycle arrest in human AGS cells assessed as cell accumulation at S phase at 5 uM by PI staining based flow cytometry (reference value: 32.4 %); assay type: functional
# B16 [18] = experiment: Activation of NCX1 in mouse B16 cells assessed as increase in intracellular Fluo4-Ca2+ level at 5 uM in presence of extracellular Fluo4-Ca2+/SN 6 by cell imaging analysis; assay type: cell-based
# AGS [19] = experiment: Induction of apoptosis in human AGS cells assessed as necrotic cells at 20 uM by Annexin V-FITC/PI staining based flow cytometry (reference value: 0.20 %); assay type: functional
# B16 [20] = experiment: Antitumor activity against mouse B16 cells implanted in nude mouse at 2.5 to 5 mg/kg, ip; assay type: functional, organism-based; conditions: dose 2.5-5 mg/kg
# AGS [21] = experiment: Inhibition of cell migration in human AGS cells at 5 uM incubated up to 24 hrs by scratch wound healing assay; assay type: functional, cell-based
# B16 [22] = experiment: Activation of NCX1 in mouse B16 cells harboring shNCX1 assessed as increase in intracellular Fluo4-Ca2+ level at 5 uM in presence of extracellular Fluo4-Ca2+ by cell imaging analysis; assay type: cell-based
# AGS [23] = experiment: Induction of apoptosis in human AGS cells assessed as viable cells at 5 uM by Annexin V-FITC/PI staining based flow cytometry (reference value: 94.1 %); assay type: functional; conditions: read-out: Activity
# B16 [24] = experiment: Activation of NCX1 in mouse B16 cells assessed as increase in intracellular Fluo4-Ca2+ level at 5 uM in presence of extracellular Fluo4-Ca2+ by cell imaging analysis; assay type: cell-based; conditions: filed as activator
# AGS [25] = experiment: Induction of apoptosis in human AGS cells assessed as necrotic cells at 10 uM by Annexin V-FITC/PI staining based flow cytometry (reference value: 0.20 %); assay type: functional
# AGS [26] = experiment: Induction of apoptosis in human AGS cells assessed as early apoptotic cells at 10 uM by Annexin V-FITC/PI staining based flow cytometry (reference value: 4.25 %); assay type: functional
# AGS [27] = experiment: Induction of apoptosis in human AGS cells assessed as late apoptotic cells at 20 uM by Annexin V-FITC/PI staining based flow cytometry (reference value: 1.43 %); assay type: functional
# AGS [28] = experiment: Induction of apoptosis in human AGS cells assessed as late apoptotic cells at 5 uM by Annexin V-FITC/PI staining based flow cytometry (reference value: 1.43 %); assay type: functional
# AGS [29] = experiment: Downregulation of AKT level in human AGS cells at 5 uM in presence of SN 6 by Western blot analysis; assay type: functional, cell-based
# AGS [30] = experiment: Induction of apoptosis in human AGS cells assessed as early apoptotic cells at 20 uM by Annexin V-FITC/PI staining based flow cytometry (reference value: 4.25 %); assay type: functional
# AGS [31] = experiment: Inhibition of cell migration in human AGS cells at 5 uM by transwell assay; assay type: functional, cell-based
# AGS [32] = experiment: Induction of apoptosis in human AGS cells assessed as late apoptotic cells at 10 uM by Annexin V-FITC/PI staining based flow cytometry (reference value: 1.43 %); assay type: functional
# AGS [33] = experiment: Downregulation of beta-catenin level in human AGS cells by Western blot analysis; assay type: functional, cell-based; conditions: dose <= 10.0 µM
# AGS [34] = experiment: Induction of apoptosis in human AGS cells assessed as viable cells at 10 uM by Annexin V-FITC/PI staining based flow cytometry (reference value: 94.1 %); assay type: functional; conditions: read-out: Activity
# B16 [35] = experiment: Antiproliferative activity against mouse B16 cells assessed as inhibition of cell viability; assay type: functional, cell-based
# AGS [36] = experiment: Downregulation of AKT level in human AGS cells by Western blot analysis; assay type: functional, cell-based; conditions: dose <= 10.0 µM
# AGS [37] = experiment: Induction of apoptosis in human AGS cells assessed as necrotic cells at 5 uM by Annexin V-FITC/PI staining based flow cytometry (reference value: 0.20 %); assay type: functional
# Sodium/calcium exchanger 1 (Homo sapiens), sequence (P32418 36-973 limits assumed): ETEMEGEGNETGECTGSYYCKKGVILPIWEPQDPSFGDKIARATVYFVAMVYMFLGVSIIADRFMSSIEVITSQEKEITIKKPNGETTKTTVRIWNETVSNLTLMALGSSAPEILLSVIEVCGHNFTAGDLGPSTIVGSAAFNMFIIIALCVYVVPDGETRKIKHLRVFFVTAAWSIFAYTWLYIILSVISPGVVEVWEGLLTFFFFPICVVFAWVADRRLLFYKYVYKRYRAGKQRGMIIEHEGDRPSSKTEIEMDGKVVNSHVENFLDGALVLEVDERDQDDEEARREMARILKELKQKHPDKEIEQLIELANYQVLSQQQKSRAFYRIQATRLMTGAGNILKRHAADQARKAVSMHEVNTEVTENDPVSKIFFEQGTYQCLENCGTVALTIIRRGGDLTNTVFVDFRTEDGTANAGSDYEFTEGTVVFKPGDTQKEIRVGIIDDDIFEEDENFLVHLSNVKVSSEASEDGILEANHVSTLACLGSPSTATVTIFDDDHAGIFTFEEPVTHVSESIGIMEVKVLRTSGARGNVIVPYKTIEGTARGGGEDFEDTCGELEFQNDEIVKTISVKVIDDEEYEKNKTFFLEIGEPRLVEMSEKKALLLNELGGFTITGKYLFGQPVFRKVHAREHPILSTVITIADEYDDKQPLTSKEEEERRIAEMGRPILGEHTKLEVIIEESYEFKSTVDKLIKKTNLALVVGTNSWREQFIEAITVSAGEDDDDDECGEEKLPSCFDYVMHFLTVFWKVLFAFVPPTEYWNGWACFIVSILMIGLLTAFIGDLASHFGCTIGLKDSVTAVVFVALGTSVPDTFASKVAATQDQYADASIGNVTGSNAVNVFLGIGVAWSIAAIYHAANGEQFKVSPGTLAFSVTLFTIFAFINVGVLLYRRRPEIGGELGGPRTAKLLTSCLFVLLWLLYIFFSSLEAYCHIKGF
smiles,measurement,setting,value
CC(=O)OC[C@@]12Oc3ccc(-c4ccc5c(c4O)C(=O)C4=C(O)C[C@H](C)[C@H](OC(C)=O)[C@]4(COC(C)=O)O5)c(O)c3C(=O)C1=C(O)C[C@H](C)[C@@H]2OC(C)=O,IC50,"AGS [1]; Homo sapiens, AGS, 48 h",6.23 µM
same,Activity,Gastric cancer cell,Active
same,Activity,GES1,Non-toxic
same,Ratio IC50,AGS [2],2
CC(=O)O[C@H]1[C@@H](C)CC(O)=C2C(=O)c3c(O)ccc(-c4ccc5c(c4O)C(=O)C[C@](CO)([C@H]4OC(=O)C[C@@H]4C)O5)c3O[C@]21CO,IC50,"AGS [1]; Homo sapiens, AGS, 48 h",2.65 µM
same,Activity,GES1,Non-toxic
same,Ratio IC50,AGS [2],2
CC(=O)OC[C@@]12Oc3c(-c4ccc5c(c4O)C(=O)C4=C(O)C[C@H](C)[C@H](OC(C)=O)[C@]4(CO)O5)ccc(O)c3C(=O)C1=C(O)C[C@H](C)[C@@H]2OC(C)=O (stereo in doubt; 3) [listing 1 of 2 here],IC50,AGS [1]; ags,3.89 µM
CC(=O)O[C@H]1[C@@H](C)CC(O)=C2C(=O)c3c(O)ccc(-c4ccc(O)c5c4O[C@]4(CO)C(=C(O)C[C@H](C)[C@@H]4OC(C)=O)C5=O)c3O[C@]21CO,IC50,"AGS [1]; Homo sapiens, AGS, 48 h",13.8 µM
same,Activity,Gastric cancer cell,Active
same,Activity,GES1,Non-toxic
same,Ratio IC50,AGS [2],2
CC(=O)O[C@H]1[C@@H](C)CC(O)=C2C(=O)c3c(ccc(-c4ccc(O)c5c4O[C@]4(CO)C(=C(O)C[C@H](C)[C@@H]4OC(C)=O)C5=O)c3O)O[C@]21CO,IC50,"AGS [1]; Homo sapiens, AGS, 48 h",3.06 µM
same,Activity,Gastric cancer cell,Active
same,Activity,GES1,Non-toxic
same,Ratio IC50,AGS [2],2
CC(=O)OC[C@@]12Oc3c(-c4ccc5c(c4O)C(=O)C4=C(O)C[C@H](C)[C@H](OC(C)=O)[C@]4(CO)O5)ccc(O)c3C(=O)C1=C(O)C[C@H](C)[C@@H]2OC(C)=O (stereo in doubt; 3) [listing 2 of 2 here],Activity,[3],inactive
same,Activity,[4],inactive
same,Activity,[5],Active
same,Activity,Gastric cancer cell,Active
same,Activity,[6],inactive
same,Activity,[7],inactive
CC(=O)O[C@H]1[C@@H](C)CC(O)=C2C(=O)c3c(ccc(-c4ccc5c(c4O)C(=O)C4=C(O)C[C@H](C)[C@H](OC(C)=O)[C@]4(CO)O5)c3O)O[C@]21CO,IC50,"AGS [1]; Homo sapiens, AGS, 48 h",3.45 µM
same,Activity,Gastric cancer cell,Active
same,Activity,GES1,Non-toxic
same,Ratio IC50,AGS [2],2
CC(=O)OC[C@@]12Oc3c(-c4ccc5c(c4O)C(=O)C4=C(O)C[C@H](C)[C@H](OC(C)=O)[C@]4(CO)O5)ccc(O)c3C(=O)C1=C(O)C[C@H](C)[C@@H]2OC(C)=O (stereo in doubt; 2) [listing 1 of 2 here],Activity,Gastric cancer cell,Active
CC(=O)OC[C@@]12Oc3c(-c4ccc(O)c5c4O[C@]4(CO)C(=C(O)C[C@H](C)[C@@H]4OC(C)=O)C5=O)ccc(O)c3C(=O)C1=C(O)C[C@H](C)[C@@H]2OC(C)=O,Activity,AGS [8],24.9%
same,Activity,AGS [9],No effect
same,Activity,[10],Active
same,Activity,AGS [11],48.8%
same,viability at 20 µM,AGS [12],77.3%
same,Activity,AGS [13],5.57%
same,Activity,AGS [14],inactive
same,Activity,[3],inactive
same,Activity,AGS [15],inactive
same,Activity,[4],inactive
same,IC50,"AGS [1]; Homo sapiens, AGS, 48 h",5.2 µM
same,Activity,AGS [16],Dose-dependent-effect
same,Activity,[5],Active
same,Activity,AGS [17],26.3%
same,Activity,B16 [18],inactive
same,Activity,AGS [19],0.18%
same,Activity,B16 [20],Active; Activity Was Much Greater Than Cisplatin
same,inhibition,AGS [21],Active
same,Activity,B16 [22],inactive
same,Activity,Gastric cancer cell,Active
same,viability at 5 µM,AGS [23],91.8%
same,Activity,B16 [24],Active
same,Activity,[6],inactive
same,Activity,[7],inactive
same,Activity,AGS [25],0.094%
same,Activity,AGS [26],4.24%
same,Activity,GES1,Non-toxic
same,Activity,AGS [27],5.94%
same,Activity,AGS [28],2.54%
same,Activity,AGS [29],inactive
same,Activity,AGS [30],16.6%
same,Ratio IC50,AGS [2],2
same,inhibition,AGS [31],Active
same,Activity,AGS [32],2.01%
same,Activity,AGS [33],Dose-dependent-effect
same,viability at 10 µM,AGS [34],93.7%
same,IC50,B16 [35],5.36 µM
same,Activity,AGS [36],Dose-dependent-effect
same,Activity,AGS [37],0.13%
CC(=O)OC[C@@]12Oc3c(-c4ccc5c(c4O)C(=O)C4=C(O)C[C@H](C)[C@H](OC(C)=O)[C@]4(CO)O5)ccc(O)c3C(=O)C1=C(O)C[C@H](C)[C@@H]2OC(C)=O (stereo in doubt; 2) [listing 2 of 2 here],IC50,"AGS [1]; Homo sapiens, AGS, 48 h",5.36 µM
same,Activity,GES1,Non-toxic
same,Ratio IC50,AGS [2],2
CC(=O)OC[C@@]12Oc3ccc(-c4ccc5c(c4O)C(=O)C4=C(O)C[C@H](C)[C@H](OC(C)=O)[C@]4(CO)O5)c(O)c3C(=O)C1=C(O)C[C@H](C)[C@@H]2OC(C)=O,IC50,"AGS [1]; Homo sapiens, AGS, 48 h",3.47 µM
same,Activity,Gastric cancer cell,Active
same,Activity,GES1,Non-toxic
same,Ratio IC50,AGS [2],2
